ChEMBL document CHEMBL1145278, “Inhibitors of HCV NS5B polymerase. Part 2: Evaluation of the northern region of (2Z)-2-benzoylamino-3-(4-phenoxy-phenyl)-acrylic acid” (Bioorg Med Chem Lett, 2005)
pIC50: −log10 of the molar value.

Key:
[1] = biological target: RNA-directed RNA polymerase (Hepacivirus hominis, UniProt O39930); test: Inhibitory concentration against RNA dependent RNA polymerase Nonstructural protein 5B (HCV NS5B polymerase) in Hepatitis C virus
[2] = biological target: RNA-directed RNA polymerase (Hepacivirus hominis) (UniProt O39930); test: Effective dose for RNA dependent RNA polymerase Nonstructural protein 5B (HCV NS5B polymerase) in Hepatitis C virus
RNA-directed RNA polymerase (Hepacivirus hominis), sequence (O39930 1-591): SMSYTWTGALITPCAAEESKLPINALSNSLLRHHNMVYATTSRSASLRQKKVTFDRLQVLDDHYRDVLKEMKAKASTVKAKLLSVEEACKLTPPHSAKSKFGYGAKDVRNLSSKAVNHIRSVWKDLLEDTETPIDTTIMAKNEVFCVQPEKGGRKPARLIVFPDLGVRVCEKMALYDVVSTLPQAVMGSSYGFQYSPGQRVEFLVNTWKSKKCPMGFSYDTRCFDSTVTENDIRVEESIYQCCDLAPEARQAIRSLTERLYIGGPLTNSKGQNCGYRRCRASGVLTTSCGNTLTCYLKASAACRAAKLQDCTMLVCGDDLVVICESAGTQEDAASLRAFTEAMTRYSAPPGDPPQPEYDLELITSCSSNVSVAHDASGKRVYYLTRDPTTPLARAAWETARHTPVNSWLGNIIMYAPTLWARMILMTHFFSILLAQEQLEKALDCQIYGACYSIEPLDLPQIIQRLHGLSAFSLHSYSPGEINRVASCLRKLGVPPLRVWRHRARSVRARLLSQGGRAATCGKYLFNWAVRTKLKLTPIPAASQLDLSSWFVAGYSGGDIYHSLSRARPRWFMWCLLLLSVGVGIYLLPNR

[3] = biological target: RNA-directed RNA polymerase (Hepacivirus hominis) (UniProt O39930); test: Cytotoxic concentration against RNA dependent RNA polymerase Nonstructural protein 5B (HCV NS5B polymerase) in Hepatitis C virus
[4] = biological target: RNA-directed RNA polymerase (Hepacivirus hominis) (UniProt O39930); test: Ratio for cellular to RNA dependent RNA polymerase Nonstructural protein 5B activity in Hepatitis C virus
[5] = Maximum concentration upon oral administration to rat at 5 mg/kg; type: ADME, organism-based; design: dose 5 mg/kg, route oral; conditions: in vivo
Rattus norvegicus [6] = test: Oral bioavailability in rat; type: functional, organism-based
Rattus norvegicus [7] = test: Half life was determined upon oral administration to rat; type: functional, organism-based
[8] = Clearance measured in Sprague Dawley rat dosed at 5mg/kg; type: ADME, organism-based; conditions: in vivo

RNA-directed RNA polymerase, sequence (O39930 whole entry): as the sequence (O39930 1-591) above

| Compound | pIC50 [1] | ED50 [2] [µM] | Ratio [4] | Cmax [5] [µM] | clearance [8] [mL/min/kg] | CC50 [3] [µM] | bioavailability (Rattus norvegicus [6]) [%] | T1/2 (Rattus norvegicus [7]) [h] |
| --- | --- | --- | --- | --- | --- | --- | --- | --- |
| O=C(O)/C(=C/c1ccc(Oc2ccccc2Br)cc1)NC(=O)c1ccccc1O | 7.10 | > 100 | – | – | – | > 100 | – | – |
| NNC(=O)/C(=C/c1ccc(Oc2ccccc2Br)cc1)NC(=O)c1ccccc1 | 6.00 | > 50 | – | – | – | > 50 | – | – |
| O=C(NCCO)/C(=C/c1ccc(Oc2ccccc2Br)cc1)NC(=O)c1ccccc1 | 5.57 | 8 | 3 | 1.5 | 53.3 | > 50 | 76 | 1 |
| O=C(O)/C(=C/c1ccc(Oc2c(F)cccc2Br)cc1)NC(=O)c1ccccc1 | – | 60 | – | – | – | – | – | – |
| O=C(Nc1ccccc1)/C(=C/c1ccc(Oc2ccccc2Br)cc1)NC(=O)c1ccccc1 | < 4.00 | > 50 | – | – | – | > 50 | – | – |
| O=C(Cc1ccc(Cl)cc1)N/C(=C\c1ccc(Oc2ccccc2Br)cc1)C(=O)O | 6.03 | > 100 | – | – | – | > 100 | – | – |
| O=C(CC1CCCCC1)N/C(=C\c1ccc(Oc2ccccc2Br)cc1)C(=O)O | 5.66 | > 100 | – | – | – | – | – | – |
| O=C(Cc1ccc(C(F)(F)F)cc1)N/C(=C\c1ccc(Oc2ccccc2Br)cc1)C(=O)O | 6.00 | > 100 | – | – | – | 18 | – | – |
| Nc1ccc(Oc2ccc(/C=C(\NC(=O)CCC3CCCC3)C(=O)O)cc2)c(C(F)(F)F)c1 | 4.85 | 5 | 0.4 | – | – | > 50 | – | – |
| O=C(O)/C(=C/c1ccc(Oc2ccccc2I)cc1)NC(=O)C(O)c1ccccc1 (stereo unspecified) | 5.51 | > 100 | – | – | – | – | – | – |
| O=C(CO)N/C(=C\c1ccc(Oc2ccccc2I)cc1)C(=O)O | 5.70 | > 100 | – | – | – | – | – | – |
| O=C(Nc1ccccc1C(=O)O)/C(=C/c1ccc(Oc2ccccc2Br)cc1)NC(=O)c1ccccc1 | 6.40 | > 50 | – | – | – | > 50 | – | – |
| O=C(CCC1CCCC1)N/C(=C\c1ccc(Oc2ccccc2I)cc1)C(=O)O | 5.15 | 15 | 2 | – | – | – | – | – |
| O=C(CCc1ccc(F)cc1)N/C(=C\c1ccc(Oc2ccccc2Br)cc1)C(=O)O | 6.22 | > 100 | – | – | – | > 100 | – | – |
| Cc1ccc(CCC(=O)N/C(=C\c2ccc(Oc3ccccc3Br)cc2)C(=O)O)cc1 | 5.59 | > 100 | – | – | – | > 100 | – | – |
| O=C(Cc1ccc(Br)cc1)N/C(=C\c1ccc(Oc2ccccc2Br)cc1)C(=O)O | 6.09 | > 100 | – | – | – | > 100 | – | – |
| O=C(O)/C(=C/c1ccc(Oc2ccccc2Br)cc1)NC(=O)c1ccc(Cl)cc1 | 6.96 | > 100 | – | – | – | > 100 | – | – |
| CCc1ccccc1C(=O)N/C(=C\c1ccc(Oc2ccccc2Br)cc1)C(=O)O | 7.30 | 70 | – | – | – | > 100 | – | – |
| O=C(CCC1CCCC1)N/C(=C\c1ccc(Oc2ccc(F)cc2Br)cc1)C(=O)O | 4.82 | 12 | 0.8 | – | – | > 100 | – | – |
| O=C(NCc1ccccc1)/C(=C/c1ccc(Oc2ccccc2Br)cc1)NC(=O)c1ccccc1 | < 4.00 | > 50 | – | – | – | > 50 | – | – |
| O=C(O)CCC(=O)N/C(=C\c1ccc(Oc2ccccc2I)cc1)C(=O)O | 6.10 | > 100 | – | – | – | – | – | – |

Now from value to compound, other results behind:

| pIC50 [1] | ED50 [2] [µM] | Ratio [4] | Cmax [5] [µM] | clearance [8] [mL/min/kg] | Compound | CC50 [3] [µM] | bioavailability (Rattus norvegicus [6]) [%] | T1/2 (Rattus norvegicus [7]) [h] |
| --- | --- | --- | --- | --- | --- | --- | --- | --- |
| 5.55 | > 100 | – | – | – | O=C(O)/C(=C/c1ccc(Oc2ccccc2I)cc1)NC(=O)C1CC1 | – | – | – |
| 5.22 | 12 | 2 | – | – | O=C(CCC1CCCC1)N/C(=C\c1ccc(Oc2ccccc2Br)cc1)C(=O)O | > 100 | – | – |
| – | 28 | 280 | 9 | 3.33 | O=C(O)/C(=C/c1ccc(Oc2ccccc2Br)cc1)NC(=O)c1ccccc1 | > 100 | 21 | 1.5 |
| 6.70 | > 100 | – | – | – | O=C(O)/C(=C/c1ccc(Oc2ccccc2Br)cc1)NC(=O)C1CCCCC1 | – | – | – |
| 5.66 | > 100 | – | – | – | O=C(Cc1ccc(F)cc1)N/C(=C\c1ccc(Oc2ccccc2Br)cc1)C(=O)O | > 100 | – | – |
| 7.05 | 53 | – | – | – | O=C(O)/C(=C/c1ccc(Oc2ccccc2Br)cc1)NC(=O)c1cccc(F)c1 | > 100 | – | – |
| 6.74 | > 100 | – | – | – | O=C(O)/C(=C/c1ccc(Oc2ccccc2Br)cc1)NC(=O)c1ccccc1F | > 100 | – | – |
| 6.00 | > 100 | – | – | – | O=C(Cc1ccc(I)cc1)N/C(=C\c1ccc(Oc2ccccc2Br)cc1)C(=O)O | > 100 | – | – |
| – | > 100 | – | – | – | O=C(O)/C(=C/c1ccc(Oc2ccccc2Br)cc1)NC(=O)C12CC3CC(CC(C3)C1)C2 | – | – | – |
| 6.10 | > 50 | – | – | – | CONC(=O)/C(=C/c1ccc(Oc2ccccc2Br)cc1)NC(=O)c1ccccc1 | 22 | – | – |
| 6.60 | > 100 | – | – | – | Cc1ccc(C(=O)N/C(=C\c2ccc(Oc3ccccc3Br)cc2)C(=O)O)cc1 | > 100 | – | – |
| 6.30 | 20 | – | – | – | NC(=O)/C(=C/c1ccc(Oc2ccccc2Br)cc1)NC(=O)c1ccccc1 | 45 | – | – |
| 5.15 | 15 | 2 | – | – | CCc1ccccc1Oc1ccc(/C=C(\NC(=O)CCC2CCCC2)C(=O)O)cc1 | > 100 | – | – |
| 4.89 | > 100 | – | – | – | O=C(CCC1CCCCC1)N/C(=C\c1ccc(Oc2ccccc2Br)cc1)C(=O)O | – | – | – |
| 6.43 | > 100 | – | – | – | O=C(CCc1ccc(C(F)(F)F)cc1)N/C(=C\c1ccc(Oc2ccccc2Br)cc1)C(=O)O | > 100 | – | – |
| 6.64 | > 100 | – | – | – | O=C(O)/C(=C/c1ccc(Oc2ccccc2Br)cc1)NC(=O)c1ccc(F)c(F)c1 | > 100 | – | – |
| 6.64 | > 100 | – | – | – | O=C(O)/C(=C/c1ccc(Oc2ccccc2Br)cc1)NC(=O)c1ccc(F)cc1F | > 100 | – | – |
| 6.30 | > 100 | – | – | – | O=C(CCc1ccc(Cl)cc1)N/C(=C\c1ccc(Oc2ccccc2Br)cc1)C(=O)O | > 100 | – | – |
| 6.07 | > 100 | – | – | – | O=C(CC1CCCC1)N/C(=C\c1ccc(Oc2ccccc2Br)cc1)C(=O)O | – | – | – |
| 5.20 | 5 | 0.7 | – | – | O=C(CCC1CCCC1)N/C(=C\c1ccc(Oc2ccccc2C(F)(F)F)cc1)C(=O)O | > 100 | – | – |
| 5.32 | > 100 | – | – | – | CC(O)C(=O)N/C(=C\c1ccc(Oc2ccccc2I)cc1)C(=O)O (stereo unspecified) | – | – | – |
| 4.82 | > 50 | – | – | – | O=C(Nc1ccccc1O)/C(=C/c1ccc(Oc2ccccc2Br)cc1)NC(=O)c1ccccc1 | > 50 | – | – |
| 7.22 | > 50 | – | – | – | O=C(O)CNC(=O)/C(=C/c1ccc(Oc2ccccc2Br)cc1)NC(=O)c1ccccc1 | > 50 | – | – |
| 6.92 | > 100 | – | – | – | O=C(O)/C(=C/c1ccc(Oc2ccccc2Br)cc1)NC(=O)c1ccc(Br)cc1 | > 100 | – | – |
| 4.92 | > 50 | – | – | – | O=C(Nc1ccc(O)cc1)/C(=C/c1ccc(Oc2ccccc2Br)cc1)NC(=O)c1ccccc1 | 22 | – | – |
| 6.08 | > 100 | – | – | – | O=C(O)CCCC(=O)N/C(=C\c1ccc(Oc2ccccc2I)cc1)C(=O)O | – | – | – |
| 5.72 | 15 | – | – | – | O=C(Nc1cccc(O)c1)/C(=C/c1ccc(Oc2ccccc2Br)cc1)NC(=O)c1ccccc1 | 25 | – | – |
| 7.00 | > 100 | – | – | – | O=C(O)/C(=C/c1ccc(Oc2ccccc2Br)cc1)NC(=O)C1CC2CCC1C2 (stereo unspecified) | – | – | – |
